In this data set the test system is acute pancreatitis murine model. Kind of data set: Caerulein-induced acute pancreatitis murine model. It is filed as in vivo, Balb/c mice. Also noted: Serum IL33 level / Serum TGF-B level: unit not given here. The following applies: for Acinar cell necrosis (group mean score) / Haemorrhage (group mean score) / Interstitial oedema (group mean score) / Leukocyte infiltration (group mean score) / Mean terminal BW (% of initial) / Mean terminal pancreas weight / Pancreas histopathology observations (H&E) / Schmidt Score (H&E) / Pancreas IL33 level / Pancreas MPO activity / Pancreas TGF-B level / Serum IL33 level / Serum TGF-B level / Serum amylase level / Serum lipase level: 1st experiment, 15 mg/kg IV, Ib-010a and IVc-059a 150 mg/kg PO, Pirfenidone 40 mg/kg IV; for Acinar cell necrosis (group mean score) / Haemorrhage (group mean score) / Interstitial oedema (group mean score) / Leukocyte infiltration (group mean score) / Mean terminal BW (% of initial) / Mean terminal pancreas weight / Pancreas histopathology observations (H&E) / Schmidt Score (H&E): caerulein induced; for Schmidt Score (H&E): induced + vehicle = 10, non-induced = 0; for Pancreas IL33 level / Pancreas MPO activity / Pancreas TGF-B level: terminal pancreatic tissue; for Serum IL33 level / Serum TGF-B level / Serum amylase level / Serum lipase level: terminal serum; for pancreatic tissue levels of IL33: compared to the induced group; for Amylase / IL-33 / Lipase / MPO / Schmidt Score / TGF-B / Trichome staining (Fibrosis % area): 15 mg/kg, Pirfenidone 100 mg/kg. The protocol:
Therapeutic efficacy of the compounds according to the present invention was assessed on an acute pancreatitis murine model. Tissue samples were obtained to allow post in-life analysis of pancreatitis parameters. Plasma samples were also obtained to assess animal exposure levels after administration of the compounds.
Animals: A total of 70 female Balb/c mice aged 8-10 weeks weighing approximately 20-25 g were used for the study (Charles River). After 7 days acclimatization, they were allocated into the different groups. […] Cages, bedding, and water were sanitized before use. Animals were provided with Corn-o-cobs enrichment bedding to provide environment enrichment and nesting material. […] The animal holding room were maintained as follows—room temperature at 20-24° C., humidity at 30-70% and a 12 h light/dark cycle used. Although animals used in this study were immuno-competent, preparation of dosing solutions and dosing/weighing of animals were carried out in a sterile biosafety cabinet.
Final formulation was in 5% DMSO, 10% Solutol, 10% PEG400, 75% 0.9% Saline and pH adjusted to 7 with 0.5M NaOH solution.
Final formulation is in 5% DMSO, 10% Solutol, 10% PEG400, 75% 0.9% Saline and pH adjusted to 7 with 0.5M NaOH solution. For per os (PO) dosing IVc-059a is formulated in water. Drug solutions were formulated on the day of dosing.
The purposes of this study were to assess efficacy compounds in an acute pancreatitis model (14 days), generate tissue samples to allow post in-life analysis of pancreatitis parameters and generate four plasma samples to assess animal exposure levels after first and last injection obtained from blood samples taken 1 h and 24 h after first and last injection.
Study Design: On the first study day animals were randomly be assigned to treatment groups, ensuring an equal spread of bodyweight. Mice (except negative control group) were treated with test compounds were given 5 minutes prior to caerulein dosing, followed by injection with caerulein at […] via intraperitoneal route (IP) daily during the study.
Treatment of test compounds were given 5 minutes prior to caerulein dosing.
Sampling and post in-life analyses: at times indicated above a whole blood sample (60 μl) were taken from the lateral tail vein into tubes coated with K2-EDTA. Plasma samples were prepared and stored frozen at −20° C. Plasma samples were sent to client bioanalysis provider Eurofins (FR) for quantification of compound.
Terminal Sampling: Prior to termination animals were weighed. Terminal study animals were culled via CO2 inhalation. A terminal blood sample was taken via cardiac puncture and plasma prepared. Lipase and Amylase activities were measured via ELISA using commercially available ELISA kits. Remaining plasma was stored for future cytokine analyses. Pancreas tissue was resected and weighed, and a section ([…]) snap frozen and analysed for quantification of compound in pancreas sample. A section ([…]) was processed for measurement of MPO activity, IL-33 and TGF-B levels via ELISA. The remainder was fixed in formalin and embedded in paraffin wax. H&E staining was carried out and section assessed using Schmidts standard scoring system, examining: edema, inflammatory infiltration, parenchymal necrosis, haemorrhage. Massons' Trichrome staining was carried out and area covered by fibrotic tissue quantified digitally using QuPath software. Terminal serum samples was used to assess blood chemistry using an IdeXX CHEM15 and LYTE4 clip (4 animals per treatment group).
Histopathology assessment of pancreatic injury based on 4 criteria: Oedema, Inflammatory infiltration, Parenchymal necrosis, Haemorrhage and scored as described below.
Schmidt score is the evaluation of the efficacy of the compounds based on the four histopathology criteria as described in the table below.

Structures are written as SMILES. Entries after “also recorded” stand apart in the source; their conditions may differ.

`O=C(O)c1cc(NC(=O)c2cc(O)c(C(=O)O)cc2O)cc(NC(=O)c2cc(O)c(C(=O)O)cc2O)c1` [Ib-010a, 3,5-bis(2,5-dihydroxy-4-carboxybenzoylamino)benzoic acid]: the “Acinar cell necrosis (group mean score)” value was found to be 1.0, the “Haemorrhage (group mean score)” value turned out to be 0.8, the “Interstitial oedema (group mean score)” value was 1.5 and the “Leukocyte infiltration (group mean score)” value (“Leukocyte infiltration” for short) is recorded as 3.0. In addition, the “Mean terminal BW (% of initial)” value is 91 % of initial; the “Mean terminal pancreas weight” value came to 0.091 g; the “Pancreas histopathology observations (H&E)” value is “Oedema observed throughout pancreas and within; also recorded: Mild haemorrhage observed; also recorded: Mild acinar cell necrosis observed; also recorded: Leukocyte infiltration observed; also recorded: Disruption to the basophilic region”; the “Schmidt Score (H&E)” value came to 6.3. The “Pancreas IL33 level” value was 157 ± 70, the “Pancreas MPO activity” value came to 1.83, the “Pancreas TGF-B level” value is listed as 219 ± 140 and the “Serum IL33 level” value is 35.36. Moreover, the “Serum TGF-B level” value turned out to be 6.87, the Serum amylase level was 37.46 and the Serum lipase level is 9.06. For the same compound, where the note is “first experiment, IV”, the “TGF-B levels in pancreas” value is recorded as “decreased significantly” and the “pancreatic tissue levels of IL33” value is listed as “significant decrease”.

Consider `O=C(Nc1ccccc1-c1nnn[nH]1)c1cc(O)c(C(=O)Nc2ccccc2-c2nnn[nH]2)cc1O` [Ic-001aTz2, N1,N4-bis(2-(1H-tetrazol-5-yl)phenyl)-2,5-dihydroxyterephthalamide], for which, for the setting “second experiment, IV”, the Amylase stood at 50.912 mU/mL, the IL-33 turned out to be 493 ± 126 ng/mL, the Lipase is on record as 8.305 mU/mL and the MPO came out at 2.63 ± 0.63 U/mg. In addition, for the setting “second experiment, IV”, the “Schmidt Score” value worked out at 3.9 ± 0.8, the TGF-B is recorded as 696 ± 448 ng/mL and the “Trichome staining (Fibrosis % area)” value amounted to 1.366 ± 0.562 % area.

As to `O=C(O)c1cc(O)c(C(=O)Nc2ccccc2C(=O)O)cc1O` [Ia-001a, 4-(2-carboxyphenylaminocarbonyl)-2,5-dihydroxybenzoic acid], the “Acinar cell necrosis (group mean score)” value turned out to be 0.9, the “Haemorrhage (group mean score)” value worked out at 1.1, the “Interstitial oedema (group mean score)” value worked out at 1.3 and the “Leukocyte infiltration” value is reported as 3.0. Also, the “Mean terminal BW (% of initial)” value is listed as 90.3 % of initial, the “Mean terminal pancreas weight” value amounted to 0.083 g, the “Pancreas histopathology observations (H&E)” value is given as “Oedema observed throughout pancreas; also recorded: Haemorrhage observed; also recorded: Mild acinar cell less necrosis observed; also recorded: Leukocyte infiltration throughout; also recorded: Abnormal islet morphology observed; also recorded: Disruption to the basophilic region” and the “Schmidt Score (H&E)” value is given as 6.3. The “Pancreas IL33 level” value is recorded as 330 ± 162, the “Pancreas MPO activity” value was determined as 3.76, the “Pancreas TGF-B level” value stood at 592 ± 358 and the “Serum IL33 level” value is 39.52. In addition, the “Serum TGF-B level” value came out at 8.69, the Serum amylase level was found to be 34.07 and the Serum lipase level amounted to 6.72. Besides, the “pancreatic tissue levels of IL33” value (first experiment, IV) is “significant decrease”.

For `O=C(O)c1cc(O)c(C(=O)Nc2ccccc2-c2nnn[nH]2)cc1O` [Ia-001a-Tz, 4-(2-(1H-tetrazol-5-yl)phenyl-aminocarbonyl)-2,5-dihydroxybenzoic acid], the “Mean terminal BW (% of initial)” value was 89.1 % of initial, the “Mean terminal pancreas weight” value came to 0.084 g, the “Schmidt Score (H&E)” value turned out to be 5.9 and the “Pancreas IL33 level” value is 154 ± 49. Besides, the “Pancreas MPO activity” value stood at 2.68, the “Pancreas TGF-B level” value is 507 ± 289, the “Serum IL33 level” value is given as 37.02 and the “Serum TGF-B level” value is 8.69. For the same compound, the Serum amylase level stood at 35.35 and the Serum lipase level is 8.57. Also, under “first experiment, IV”, the “pancreatic tissue levels of IL33” value is given as “significant decrease”.

For the compound `O=C(O)c1cc(NC(=O)c2cc(O)c(C(=O)Nc3ccccc3-c3nnn[nH]3)cc2O)ccc1O` [Ic-001a-Tz/004a, 5-(4-(2-(1H-tetrazol-5-yl)phenylaminocarbonyl)-2,5-dihydroxybenzamido)-2-hydroxy benzoic acid], the “Acinar cell necrosis (group mean score)” value is recorded as 1.5, the “Haemorrhage (group mean score)” value is listed as 1.0, the “Interstitial oedema (group mean score)” value is 1.6 and the “Leukocyte infiltration” value was found to be 2.8. Also, the “Mean terminal BW (% of initial)” value was 93.5 % of initial, the “Mean terminal pancreas weight” value was found to be 0.104 g, the “Pancreas histopathology observations (H&E)” value was “Oedema observed throughout pancreas; also recorded: Mild haemorrhage observed; also recorded: Acinar cell necrosis observed; also recorded: Leukocyte infiltration throughout; also recorded: Disruption to the basophilic region” and the “Schmidt Score (H&E)” value is on record as 6.9. The “Pancreas IL33 level” value is 180 ± 54, the “Pancreas MPO activity” value amounted to 2.15, the “Pancreas TGF-B level” value came out at 369 ± 195 and the “Serum IL33 level” value turned out to be 35.43. Further, the “Serum TGF-B level” value is given as 8.99, the Serum amylase level turned out to be 36.51 and the Serum lipase level came out at 8.21. Also, the “pancreatic tissue levels of IL33” value (first experiment, IV) was “significant decrease”.

Under “second experiment, IV”, `O=C(O)c1cc(NC(=O)c2cc(O)c(C(=O)O)cc2O)cc(C(=O)O)c1` [Ia-015a, 5-(4-carboxy-2,5-dihydroxybenzamido)isophthalic acid] came in with an Amylase of 51.669 mU/mL, an IL-33 of 398 ± 148 ng/mL, a Lipase of 5.31 mU/mL and an MPO of 2.68 ± 0.6 U/mg. Moreover, where the note is “second experiment, IV”, the “Schmidt Score” value was 4.6 ± 0.8, the TGF-B was found to be 547 ± 373 ng/mL and the “Trichome staining (Fibrosis % area)” value is on record as 1.704 ± 1.621 % area. Moreover, the “Lipase activity in serum” value (second experiment, pirfenidone 100 mg/kg, compounds 15 mg/k, vs vehicle treated animals) is “significantly lower than that in vehicle treated animals”.

Values taken from patent US20230150951A1, “2,5- OR 2,6-DISUBSTITUTED HYDROQUINONE DERIVATIVES WITH AT LEAST ONE CARBOXY, SULFO OR AMIDO GROUP USEFUL AS MEDICAMENTS” (OM PHARMA SA, priority 2020, published 2023).
